The test deals with T1, CGRP receptor (Homo sapiens, UniProt O60894+Q16602).
T1 construct: endogenous in cells; host or cells: SK-N-MC cells (membrane homogenate)
Description: CGRP radioligand binding assay ([125I]-CGRP displacement, SK-N-MC cell homogenate). Conditions: displacement of 50% of [125I]-CGRP binding, room temperature 2 h. The procedure: CGRP radioligand binding assay. Tissue Culture. SK-N-MC cells were grown at 37° C. in 5% CO2 as a monolayer in medium consisting of MEM with Earle's salts and L-glutamine (Gibco) supplemented with 10% fetal bovine serum (Gibco).
Cell Pellets. The cells were rinsed twice with phosphate-buffered saline (155 mM NaCl, 3.3 mM Na2HPO4, 1.1 mM KH2PO4, pH 7.4), and incubated for 5-10 min. at 4° C. in hypotonic lysis buffer consisting of 10 mM Tris (pH 7.4) and 5 mM EDTA. The cells were transferred from plates to polypropylene tubes (16×100 mm) and homogenized using a polytron. Homogenates were centrifuged at 32,000×g for 30 min. The pellets were resuspended in cold hypotonic lysis buffer with 0.1% mammalian protease inhibitor cocktail (Sigma) and assayed for protein concentration. The SK-N-MC homogenate was then aliquoted and stored at −80° C. until needed.
Binding Assay. The compounds of invention were solubilized and carried through serial dilutions using 100% DMSO. Aliquots from the compound serial dilutions were further diluted 25 fold into assay buffer (50 mM Tris-Cl pH 7.5, 5 mM MgCl2, 0.005% Triton X-100) and transferred (volume 50 μl) into 96 well assay plates. [^125I]-CGRP (Amersham Biosciences) was diluted to 60 pM in assay buffer and a volume of 50 μl was added to each well. SK-N-MC pellets were thawed, diluted in assay buffer with fresh 0.1% mammalian protease inhibitor cocktail (Sigma), and homogenized again. SK-N-MC homogenate (5 μg/well) was added in a volume of 100 μl. The assay plates were then incubated at room temperature for 2 h. Assays were stopped by addition of excess cold wash buffer (20 mM Tris-Cl pH 7.5, 0.1% BSA) immediately followed by filtration over glass fiber filters (Whatman GF/B) previously soaked in 0.5% PEI. Non-specific binding was defined with 1 μM beta-CGRP. Protein bound radioctivity was determined using a gamma or scintillation counter. The IC50 was defined as the concentration of a compound of invention required to displace 50% of radioligand binding. Results are tabulated in Table 1 as follows: 0.01 nM≦A≦10 nM; 10 nM<B≦100 nM; 100 nM<C≦1000 nM; D>1000 nM.

T1 sequence (Q16602 23-461): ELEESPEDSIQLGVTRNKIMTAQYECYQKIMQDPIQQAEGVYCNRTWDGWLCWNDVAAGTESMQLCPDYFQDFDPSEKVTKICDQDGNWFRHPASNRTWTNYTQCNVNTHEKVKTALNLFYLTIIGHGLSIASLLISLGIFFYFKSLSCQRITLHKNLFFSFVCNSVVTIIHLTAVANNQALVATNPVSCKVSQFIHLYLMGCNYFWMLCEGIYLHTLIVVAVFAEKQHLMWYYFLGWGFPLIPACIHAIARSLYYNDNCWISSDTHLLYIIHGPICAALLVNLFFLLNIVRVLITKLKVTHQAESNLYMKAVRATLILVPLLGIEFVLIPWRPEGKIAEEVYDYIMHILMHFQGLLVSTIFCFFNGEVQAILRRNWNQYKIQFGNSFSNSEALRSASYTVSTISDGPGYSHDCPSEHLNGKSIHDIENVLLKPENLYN
T1 sequence (O60894 27-148): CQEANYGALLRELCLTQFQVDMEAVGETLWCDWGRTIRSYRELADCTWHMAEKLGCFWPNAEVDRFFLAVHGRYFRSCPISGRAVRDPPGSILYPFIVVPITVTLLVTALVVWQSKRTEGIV

As for `Cc1cc(C[C@@H](NC(=O)N2CCC(N3Cc4ccccc4NC3=O)CC2)C(=O)N[C@@H](CCCCNC(=O)OC(C)(C)C)C(=O)N2CCN(c3ccncc3)CC2)cc2cn[nH]c12` [Example 3, tert-Butyl (S)-5-((R)-3-(7-methyl-1H-indazol-5-yl)-2-(4-(2-oxo-1,2-dihydroquinazolin-3(4H)-yl)piperidine-1-carboxamido)propanamido)-6-oxo-6-(4-(pyridin-4-yl)piperazin-1-yl)hexylcarbamate], the IC50 (usually the point on the concentration scale where inhibition reaches its midpoint) fell in the range of 0.01 to 10 nM. `Cc1cc(C[C@@H](NC(=O)N2CCC(c3cc4cccnc4[nH]c3=O)CC2)C(=O)N[C@@H](CCCCN)C(=O)N2CCN(c3ccncc3)CC2)cc2cn[nH]c12` [Example 7, N-((R)-1-((S)-6-amino-1-oxo-1-(4-(pyridin-4-yl)piperazin-1-yl)hexan-2-ylamino)-3-(7-methyl-1H-indazol-5-yl)-1-oxopropan-2-yl)-4-(2-oxo-1,2-dihydro-1,8-naphthyridin-3-yl)piperidine-1-carboxamide] had an IC50 of 0.01 to 10 nM. The same measure for `Cc1cc(C[C@@H](NC(=O)N2CCC(c3cc4ccccc4[nH]c3=O)CC2)C(=O)N[C@@H](CCCCNC(=O)OC(C)(C)C)C(=O)N2CCN(c3ccncc3)CC2)cc2oc(=O)[nH]c12` [Example 8, tert-Butyl (S)-5-((R)-3-(4-methyl-2-oxo-2,3-dihydrobenzo[d]oxazol-6-yl)-2-(4-(2-oxo-1,2-dihydroquinolin-3-yl)piperidine-1-carboxamido)propanamido)-6-oxo-6-(4-(pyridin-4-yl)piperazin-1-yl)hexylcarbamate]: 0.01 to 10 nM; for `Cc1cc(C[C@@H](NC(=O)N2CCC(N3Cc4cccc(F)c4NC3=O)CC2)C(=O)N[C@@H](CCCCNC(=O)OC(C)(C)C)C(=O)N2CCN(c3ccncc3)CC2)cc2nn[nH]c12` [Example 9, tert-Butyl (S)-5-((R)-2-(4-(8-fluoro-2-oxo-1,2-dihydroquinazolin-3(4H)-yl)piperidine-1-carboxamido)-3-(7-methyl-1H-benzo[d][, 2,3]triazol-5-yl)propanamido)-6-oxo-6-(4-(pyridin-4-yl)piperazin-1-yl)hexylcarbamate]: 0.01 to 10 nM. For the compound `Cc1cc(C[C@@H](NC(=O)N2CCC(c3cc4cccc(F)c4[nH]c3=O)CC2)C(=O)N[C@@H](CCCCN)C(=O)N2CCN(c3ccncc3)CC2)cc2cn[nH]c12` [Example 6, N-((R)-1-((S)-6-amino-1-oxo-1-(4-(pyridin-4-yl)piperazin-1-yl)hexan-2-ylamino)-3-(7-methyl-1H-indazol-5-yl)-1-oxopropan-2-yl)-4-(8-fluoro-2-oxo-1,2-dihydroquinolin-3-yl)piperidine-1-carboxamide], the IC50 is 0.01 to 10 nM.

In turn, `Cc1cc(C[C@@H](NC(=O)N2CCC(c3cc4ccccc4[nH]c3=O)CC2)C(=O)N[C@@H](CCCCN)C(=O)N2CCC(N3CCCCC3)CC2)cc2cn[nH]c12` [Example 5, N-((R)-1-((S)-6-amino-1-oxo-1-(4-(piperidin-1-yl)piperidin-1-yl)hexan-2-ylamino)-3-(7-methyl-1H-indazol-5-yl)-1-oxopropan-2-yl)-4-(2-oxo-1,2-dihydroquinolin-3-yl)piperidine-1-carboxamide] showed an IC50 of 0.01 to 10 nM. Regarding `Cc1cc(C[C@@H](NC(=O)N2CCC(c3cc4ccccc4[nH]c3=O)CC2)C(=O)N[C@@H](CCCCN)C(=O)N2CCN(c3ccncc3)CC2)cc2cn[nH]c12` [Example 2, N-((R)-1-((S)-6-amino-1-oxo-1-(4-(pyridin-4-yl)piperazin-1-yl)hexan-2-ylamino)-3-(7-methyl-1H-indazol-5-yl)-1-oxopropan-2-yl)-4-(2-oxo-1,2-dihydroquinolin-3-yl)piperidine-1-carboxamide], the IC50 was 0.01 to 10 nM. For the compound `Cc1cc(C[C@@H](NC(=O)N2CCC(N3Cc4ccccc4NC3=O)CC2)C(=O)N[C@@H](CCCCN)C(=O)N2CCN(c3ccncc3)CC2)cc2cn[nH]c12` [Example 4, N-((R)-1-((S)-6-Amino-1-oxo-1-(4-(pyridin-4-yl)piperazin-1-yl)hexan-2-ylamino)-3-(7-methyl-1H-indazol-5-yl)-1-oxopropan-2-yl)-4-(2-oxo-1,2-dihydroquinazolin-3(4H)-yl)piperidine-1-carboxamide], the IC50 was 0.01 to 10 nM.

For the origin of these results see patent US7834007B2, “CGRP antagonists” (Bristol-Myers Squibb Company, priority 2005, dated 2010).
